Measured values published in US20120020876A1, “HEDGEHOG PATHWAY INHIBITORS” (priority 2009, published 2012).
Entries after “also recorded” stand apart in the source; their conditions may differ.

Legend:
Format in all cases: in vivo, mouse
[1] = test system: pancreatic tumors in KPC mice; experiment: Survival study of tumor-bearing KPC mice; settings: KPC mice enrolled with 5-10 mm tumors
Experimental: vehicles: 20 μL/g 0.85% NaCl+8 μL/g 5% HPBCD;
Compound A: 40 mg/kg Compound A+20 μL/g 0.85% NaCl;
For survival studies, mice were enrolled following the detection of 5-10 mm diameter tumor by ultrasound. Tumors were quantified by 3D ultrasound twice weekly until endpoint.

Gli1 = Gli1 expression in KPC tumors by quantitative real-time PCR; settings: 40 mg/kg Compound A oral, treated for 4 days, vs control
Experimental: (§1) KPC mice harboring pancreatic tumors were treated with 40 mg/kg of Compound A by oral gavage, either singly, once daily for four days or at as part of a survival study. […] Six hours following the final dose, tissue samples were harvested, snap frozen in liquid nitrogen and stored at −80° C. Mice with abdominal ascites were excluded from analysis. Samples were analyzed by LC/MS, as described below.
RNA was isolated from tissues using the RNeasy kit (Qiagen). cDNA was synthesized from 1-2 ug of RNA using the AffinityScript QPCR cDNA Synthesis Kit (Stratagene). cDNA was analyzed by quantitative real-time PCR on a 7900HT Real-Time PCR system using relative quantification (ΔΔct) with the taqman gene expression assays (Applied Biosystems) (Table 7). Experiment was performed on 5 KPC tumors and 7 syngeneic tumors derived from K8484 or K8675 cells.

[2] = Compound A concentration in tissues by LC/MS; settings: KPC mice; oral administration 40 mg/kg; 6 h after final dose
Experimental: as §1
Calibration standard stock solutions were prepared by dissolving Compound A at a concentration of 2.5 mg/mL in DMSO. Internal standard stock solution was prepared by dissolving deuterated Compound A (Compound A-d^3) in DMSO for a final concentration of 2.5 mg/mL. Stock solutions were stored in aliquots at −80° C. until further use. […]
Tumor samples were homogenized in 4 volumes of ACN:PBS buffer. […] Compound A concentrations for all tissues were preferentially determined using the 1:1 dilution unless any of the replicates for a given tissue required the higher dilution of 1/100 for accurate quantitation.
Compound A concentrations in the samples were determined from the calibration curves generated in homogenization buffer. […]
The data were acquired and processed using the software Analyst 1.4.1 (Applied Biosystems, Foster City, Calif.). For the standard curve samples, peak area ratios of Compound A to internal standard […] were calculated and plotted against the theoretical concentrations. […]

KPC tumor vasculature = experiment: Mean vascular density and vascular-tumor distance (CD31 immunohistochemistry) in KPC tumors
Experimental: Tissues were fixed in 10% formalin solution for 24 hours and transferred to 70% ethanol. Tissues were paraffin embedded, sectioned and rehydrated. For CD31 IHC, sections were unmasked in 10 mM EDTA, pH 8.0 in a pressure cooker. For all other antibodies, sections were unmasked in 10 mM citric acid in a pressure cooker. Endogenous peroxidases were quenched in 3% H2O2/PBS for 20 minutes. Remaining steps were carried out with Vectastain ABC kits appropriate to the species of primary antibody (Vector Labs, Burlingame, Calif.) with the following modification: blocking serum was supplemented with Protein Blocking Agent (Immunotech/BeckmanCoulter, Fullerton, Calif.) diluted 1:50. Antigens were developed with DAB Peroxidase Substrate (Vector Labs). […]
Tissue sections were probed with anti-CD31 antibodies and counterstained with hematoxylin. Mean vascular density (MVD) was determined as the number of CD31 positive blood vessels per 40× field, over three random fields per tumor. The distance separating intratumoral blood vessels and neoplastic cells was determined for twenty randomly chosen blood vessels per tumor. Each intratumoral blood vessels was photographed at 1000× magnification, and the distance to the four nearest tumor cells was measured and the results averaged.

Structure (SMILES): CC1=C2C[C@H]3[C@@H](CC[C@@H]4C[C@H](NS(C)(=O)=O)CC[C@@]43C)[C@@H]2CC[C@@]2(C1)O[C@@H]1C[C@H](C)CN[C@H]1[C@H]2C.Cl [Compound A]
- effect on survival of KPC mice [1]: Neither gemcitabine nor Compound A treatment had an effect on the survival
- Gli1 expression (Gli1): significant decrease; also recorded: significantly lower
- accumulation of drug in PDA tissues [2]: measurable accumulation of drug in PDA tissues
- mean vascular density (MVD) (KPC tumor vasculature; KPC tumors after 8-12 days of treatment): higher MVD; also recorded: significantly elevated; also recorded: increased MVD
- position of intratumoral blood vessels relative to tumor cells (KPC tumor vasculature; KPC tumors, vs control and gemcitabine-treated specimens): positioned in close proximity to tumor cells
